Source: US6316033A, “Compositions for treatment of antibiotic-resistant gram-positive bacterial infections and methods for using and preparing the same” (Marco Polo Technologies, priority 1999, dated 2001)
≈ marks a conversion by molar mass, not a printed value. Like-named read-outs stand apart in the source and are kept apart here. One block for each compound: values may come before it.

Tests used:
[1] = system: antibiotic-resistant Staphylococcus aureus clinical isolates; assay: Antibiotic resistance (MIC) of S. aureus clinical isolates; type: cell-based
[2] = system: wild-type Staphylococcus aureus; assay: Minimum inhibitory concentration in liquid culture, wild-type strain; type: cell-based
Experimental: (§1) Next, the MIC for the total organic solvent extract from A. euchroma, obtained as described in Example 1 above, against wild-type Staphylococcus aureus and antibiotic-resistant Staphylococcus aureus were determined in liquid culture using L-broth with different amounts of total organic solvent extract, and compared to the MIC for common antibiotics.
(§2) More specifically, different concentrations of total organic solvent extract was added to 1.0 ml of L-broth, and inoculated with 50 μl of an overnight growth of bacteria (about 1.0×10^8 cells). The resulting samples were incubated overnight at 37° C. The MIC was then determined by measuring the minimal concentration of extract needed to inhibit the growth of the bacteria.
The MIC of the six individual components were determined using wild-type S. aureus and the liquid culture method as described above.

[3] = system: antibiotic-resistant Staphylococcus aureus; assay: Minimum inhibitory concentration in liquid culture, antibiotic-resistant strain; type: cell-based; conditions: read-out: Minimum Inhibitory Concentration (MIC)
Experimental: as §1, §2

[4] = system: wild-type Staphylococcus aureus (ATCC 29212); assay: Disk sensitivity assay, wild-type S. aureus; type: cell-based; conditions: for zone of inhibition at 2000 µg/mL: Staphylococcus aureus, ATCC29212, 18 h
Experimental: The antimicrobial activities of the total organic solvent extract from A. euchroma, obtained as described in Example 1 above, and the red colored active fraction from A. euchroma, obtained as described in Example 2 above, were evaluated using a disk sensitivity assay.
(§3) More specifically, wild-type Staphylococcus aureus (ATCC 29212) was grown in Luria broth (L-broth) at 37° C. to exponential phase, diluted to 1.0×10^7 bacteria/ml, and mixed with minimal medium (M63, +salt and glucose) with 0.15% (w/v) soft agar. The mixture was poured over a minimal agar plate (minimal medium +0.7% (w/v) agar). Filter paper disks (6.0 mm in diameter) were then impregnated with 20 μl of total organic solvent extract from A. euchroma (containing 10 mg/ml of naphthaquinone compounds in dimethyl formamide (DMF)); 20 μl of total organic solvent extract from L. erythrorhizon (containing 10 mg/ml of naphthaquinone compounds in DMF); 20 μl of the red colored active fraction from A. euchroma isolated using TLC (10 mg/ml in DMF); 20 μl of the red colored active fraction from A. euchroma isolated using the silica gel column (10 mg/ml in DMF); or 20 μl of DMF as control, and placed on the surface of the agar plates. The plates were then incubated at 37° C. for 18 hrs.
(§4) The disk assay described above was carried out on wild-type S. aureus and antibiotic-resistant S. aureus using 20 μl of the red colored active fraction from A. euchroma isolated using TLC (10 mg/ml in DMF); 20 μl of the red colored active fraction from A. euchroma isolated using the silica gel column (10 mg/ml in DMF); or 20 μl of DMF as a control.
(§5) The anti-microbial activities of the 6 individual components were determined using the disk sensitivity assay described above.
(§6) More specifically, filter paper disks impregnated with 20 μl of each individual component (2.0 mg/ml) were placed on top of the agar plate. The plates were developed as described in Example 4 above.

[5] = system: antibiotic-resistant Staphylococcus aureus (ATCC 27695); assay: Disk sensitivity assay, antibiotic-resistant S. aureus; type: cell-based; conditions: for zone of inhibition at 2000 µg/mL: Staphylococcus aureus, ATCC27695, 18 h
Experimental: as §3
The disk assay described above was carried out using antibiotic-resistant Staphylococcus aureus (ATCC 27695), and 20 μl of the total organic solvent extract from A. euchroma (containing 10 mg/ml of naphthaquinone compounds in DMF); 20 μl of the total organic solvent extract from L. erythrorhizon (containing 10 mg/ml of naphthaquinone compounds in DMF); or 20 μl of DMF as a control.
as §4, §5, §6

[6] = literature (Tanaka et al; Kyogoku et al; Honda et al); cited from earlier work
[7] = literature (Tanaka et al, 1986); cited from earlier work
[8] = read-out: Antibiotic Resistance (MIC), Strain 3-44
[9] = Staphylococcus aureus, read-out: Minimum Inhibitory Concentration (MIC)
[10] = Strain 3-16, read-out: Antibiotic Resistance (MIC)
[11] = Strain 3-20, read-out: Antibiotic Resistance (MIC)
[12] = Strain 5-37, read-out: Antibiotic Resistance (MIC)
[13] = Strain 5-38, read-out: Antibiotic Resistance (MIC)
[14] = Strain 5-39, read-out: Antibiotic Resistance (MIC)
[15] = Strain 5-47, read-out: Antibiotic Resistance (MIC)
[16] = Wild-Type Strain, individual components, 20 μl of 2.0 mg/ml, Table 9
[17] = Antibiotic-resistant Strain, individual components, 20 μl of 2.0 mg/ml, Table 9
[18] = wild-type S. aureus, liquid culture, Table 10
[19] = Wild-Type Strain, individual components, 20 μl of 2.0 mg/ml, Table 9, read-out: Zone of inhibition
[20] = Antibiotic-resistant Strain, individual components, 20 μl of 2.0 mg/ml, Table 9, read-out: Zone of inhibition
[21] = Staphylococcus aureus, wild-type S. aureus, liquid culture, Table 10, read-out: MIC

Compound: CN(C)C1C(=O)C(C(N)=O)=C(O)C2(O)C(=O)C3=C(O)c4c(O)cccc4C(C)(O)C3CC12 (stereo not shown) [Tetracycline]
MIC [1, 8]: > 32 mg/L | MIC ([1]; read-out: Antibiotic Resistance (MIC), Strain 1206): > 32 mg/L | MIC [2, 9]: 1 to 2 mg/L (≈ 2.25 to 4.5 µM) | MIC [3]: > 20 mg/L

MIC [1, 10]: 32 mg/L (≈ 84.1 µM) | MIC [1, 11]: 128 mg/L (≈ 336 µM) | MIC [1, 12]: > 128 mg/L | MIC [1, 13]: 32 mg/L (≈ 84.1 µM) | MIC [1, 14]: 128 mg/L (≈ 336 µM) | MIC [1, 15]: > 128 mg/L
Compound: COc1cccc(OC)c1C(=O)N[C@@H]1C(=O)N2[C@@H]1SC(C)(C)[C@@H]2C(=O)O [Methicillin]

Compound: CC(C)=CC[C@@H](O)C1=CC(=O)c2c(O)ccc(O)c2C1=O (single isomer, unassigned) [Peak I, Shikonin]
zone of inhibition at 2000 µg/mL [4]: 18 mm | appearance of zone of inhibition ([4]; wild-type S. aureus, individual components, 2.0 mg/ml): the inhibition was not complete, as shown by an opaque, rather than a clear zone | zone of inhibition at 2000 µg/mL [5]: 18 mm | appearance of zone of inhibition ([5]; antibiotic-resistant S. aureus, individual components, 2.0 mg/ml): the inhibition was not complete, as shown by an opaque, rather than a clear zone | MIC ([2]; Staphylococcus aureus): 4 to 5 mg/L (≈ 13.9 to 17.3 µM) | antimicrobial activity [6]: antimicrobial activity | anti-inflammatory activity [7]: anti-inflammatory activity

Compound: CC(C)=CCCC1=CC(=O)c2c(O)ccc(O)c2C1=O [deoxyshikonin]
antimicrobial activity [6]: antimicrobial activity | anti-inflammatory activity [7]: anti-inflammatory activity

Compound: CC(C)=CC[C@@H](OC(=O)CC(C)(C)O)C1=CC(=O)c2c(O)ccc(O)c2C1=O (single isomer, unassigned; peak iv) [Peak IV, Hydroxyisovaleryl shikonin]
Zone of inhibition [4, 16]: 7.0 mm | Zone of inhibition [5, 17]: 7.0 mm | MIC [2, 18]: 4.0 to 6.0 mg/L

MIC [1, 10]: 32 mg/L (≈ 61.8 µM) | MIC [1, 11]: 128 mg/L (≈ 247 µM) | MIC ([1]; Strain 4-15, read-out: Antibiotic Resistance (MIC)): 32 mg/L (≈ 61.8 µM) | MIC ([1]; Strain 4-44, read-out: Antibiotic Resistance (MIC)): > 128 mg/L | MIC ([1]; Strain 4-50, read-out: Antibiotic Resistance (MIC)): 32 mg/L (≈ 61.8 µM) | MIC [1, 12]: > 128 mg/L | MIC [1, 13]: 32 mg/L (≈ 61.8 µM) | MIC [1, 14]: 128 mg/L (≈ 247 µM) | MIC [1, 15]: > 128 mg/L
Compound: CCN1CCN(C(=O)N[C@@H](C(=O)N[C@@H]2C(=O)N3[C@@H]2SC(C)(C)[C@@H]3C(=O)O)c2ccccc2)C(=O)C1=O [Piperacillin]

Compound: CC(C)=CC[C@@H](OC(=O)CC(C)=C(C)C)C1=CC(=O)c2c(O)ccc(O)c2C1=O (single isomer, unassigned; peak iii) [Peak III, Teracryl shikonin]
Zone of inhibition [4, 16]: 7.5 mm | Zone of inhibition [5, 17]: 7.0 mm | MIC [2, 18]: 4.0 to 6.0 mg/L

Compound: CC1(C)S[C@@H]2[C@H](NC(=O)Cc3ccccc3)C(=O)N2[C@H]1C(=O)O [Penicillin G]
MIC ([1]; read-out: Antibiotic Resistance (MIC), Strain 6515): > 20 mg/L

Compound: CC(C)=CCC(OC(=O)C=C(C)C)C1=CC(=O)c2c(O)ccc(O)c2C1=O (stereo not drawn) [Peak VI, β, β-dimethylacryl shikonin]
zone of inhibition at 2000 µg/mL [4, 19]: 7 mm | zone of inhibition at 2000 µg/mL [5, 20]: 7 mm | MIC [2, 21]: < 2 mg/L | activity ranking among the individual components (MIC) [2, 18]: the most active

MIC [2, 21]: 2 to 4 mg/L (≈ 5.58 to 11.2 µM)
Compound: CC(C)=CC[C@@H](OC(=O)C(C)C)C1=CC(=O)c2c(O)ccc(O)c2C1=O [Peak V, Isobutyl shikonin]
zone of inhibition at 2000 µg/mL [4, 19]: 7 mm | zone of inhibition at 2000 µg/mL [5, 20]: 7 mm

Compound: CC[C@H]1OC(=O)[C@H](C)[C@@H](O[C@H]2C[C@@](C)(OC)[C@@H](O)[C@H](C)O2)[C@H](C)[C@@H](O[C@@H]2O[C@H](C)C[C@H](N(C)C)[C@H]2O)[C@](C)(O)C[C@@H](C)C(=O)[C@H](C)[C@@H](O)[C@]1(C)O [Erythromycin]
MIC [1, 8]: > 32 mg/L | MIC ([1]; read-out: Antibiotic Resistance (MIC), Strain 5-75): > 32 mg/L | MIC ([1]; read-out: Antibiotic Resistance (MIC), Strain 5-76): > 32 mg/L | MIC ([1]; read-out: Antibiotic Resistance (MIC), Strain 5-77): > 32 mg/L | MIC ([1]; read-out: Antibiotic Resistance (MIC), Strain 5-78): 4 mg/L (≈ 5.45 µM) | MIC [2, 9]: < 1 mg/L | MIC [3]: > 20 mg/L

Compound: CC(=O)O[C@H](CC=C(C)C)C1=CC(=O)c2c(O)ccc(O)c2C1=O (single isomer, unassigned) [Peak II, Acetyl shikonin]
zone of inhibition at 2000 µg/mL [4]: 10 mm | zone of inhibition at 2000 µg/mL [5]: 17 mm | MIC ([2]; Staphylococcus aureus): 0.5 to 1 mg/L (≈ 1.51 to 3.03 µM) | activity ranking among the individual components (MIC) [2, 18]: the most active

Compound: CO[C@@H]1[C@@H](OC(N)=O)[C@@H](O)[C@H](Oc2ccc3c(O)c(NC(=O)c4ccc(O)c(CC=C(C)C)c4)c(=O)oc3c2C)OC1(C)C [Novobiocin]
MIC [2, 9]: < 2 mg/L | MIC [3]: > 20 mg/L
